# From US20100099561A1, “HETEROBICYCLIC ALKYLTHIO-BRIDGED ISOXAZOLINES” (E.I. DU PONT DE NEMOURS AND COMPANY, priority 2008, published 2010)
# Legend:
# Type in all cases: in vivo
# [1] = test system: large crabgrass (Digitaria sanguinalis); test: Test A preemergence, large crabgrass; details: 0 to 100 scale (0 no effect, 100 complete control)
# Source text: (§1) Seeds of barnyardgrass (Echinochloa crus-galli), large crabgrass (Digitaria sanguinalis), giant foxtail (Setaria faberi), morningglory (Ipomoea spp.), pigweed (Amaranthus retroflexus), velvetleaf (Abutilon theophrasti), wheat (Triticum aestivum), and corn (Zea mays) were planted into a blend of loam soil and sand and treated preemergence with a directed soil spray using test chemicals formulated in a non-phytotoxic solvent mixture which included a surfactant. At the same time these species were also treated with postemergence applications of test compounds formulated in the same manner. Plants ranged in height from two to ten cm and were in the one- to two-leaf stage for the postemergence treatment. Treated plants and untreated controls were maintained in a greenhouse for approximately ten days, after which time all treated plants were compared to untreated controls and visually evaluated for injury. Plant response ratings, summarized in Table A, are based on a 0 to 100 scale where 0 is no effect and 100 is complete control. A dash (-) response means no test result.
# [2] = test system: wheat (Triticum aestivum); test: Test A preemergence, wheat; details: 0 to 100 scale (0 no effect, 100 complete control)
# Source text: as §1
# [3] = test system: barnyardgrass (Echinochloa crus-galli); test: Test A preemergence, barnyardgrass; details: 0 to 100 scale (0 no effect, 100 complete control)
# Source text: as §1
# [4] = test system: wheat (Triticum aestivum); test: Test A postemergence, wheat; details: 0 to 100 scale (0 no effect, 100 complete control)
# Source text: as §1
# [5] = test system: giant foxtail (Setaria faberi); test: Test A preemergence, giant foxtail; details: 0 to 100 scale (0 no effect, 100 complete control)
# Source text: as §1
# rice (Oryza sativa) = test: Test B flooded paddy test, rice; details: Flood, scale 0 to 100
# Source text: (§2) Plant species in the flooded paddy test consisted of rice (Oryza sativa), umbrella sedge (Cyperus difformis), ducksalad (Heteranthera limosa) and barnyardgrass (Echinochloa crus-galli) grown to the 2-leaf stage for testing. At time of treatment, test pots were flooded to 3 cm above the soil surface, treated by application of test compounds directly to the paddy water, and then maintained at that water depth for the duration of the test. Treated plants and controls were maintained in a greenhouse for 13 to 15 days, after which time all species were compared to controls and visually evaluated. Plant response ratings, summarized in Table B, are based on a scale of 0 to 100 where 0 is no effect and 100 is complete control. A dash (-) response means no test result.
# [6] = test system: large crabgrass (Digitaria sanguinalis); test: Test A postemergence, large crabgrass; details: 0 to 100 scale (0 no effect, 100 complete control)
# Source text: as §1
# [7] = test system: barnyardgrass (Echinochloa crus-galli); test: Test A postemergence, barnyardgrass; details: 0 to 100 scale (0 no effect, 100 complete control)
# Source text: as §1
# [8] = test system: ducksalad (Heteranthera limosa); test: Test B flooded paddy test, ducksalad; details: Flood, scale 0 to 100
# Source text: as §2
# [9] = test system: velvetleaf (Abutilon theophrasti); test: Test A postemergence, velvetleaf; details: 0 to 100 scale (0 no effect, 100 complete control)
# Source text: as §1
# corn (Zea mays) [10] = test: Test A preemergence, corn; details: 0 to 100 scale (0 no effect, 100 complete control)
# Source text: as §1
# [11] = test system: morningglory (Ipomoea spp.); test: Test A preemergence, morningglory; details: 0 to 100 scale (0 no effect, 100 complete control)
# Source text: as §1
# corn (Zea mays) [12] = test: Test A postemergence, corn; details: 0 to 100 scale (0 no effect, 100 complete control)
# Source text: as §1
# [13] = test system: pigweed (Amaranthus retroflexus); test: Test A postemergence, pigweed; details: 0 to 100 scale (0 no effect, 100 complete control)
# Source text: as §1
# [14] = test system: giant foxtail (Setaria faberi); test: Test A postemergence, giant foxtail; details: 0 to 100 scale (0 no effect, 100 complete control)
# Source text: as §1
# [15] = test system: barnyardgrass (Echinochloa crus-galli); test: Test B flooded paddy test, barnyardgrass; details: Flood
# Source text: as §2
# [16] = test system: pigweed (Amaranthus retroflexus); test: Test A preemergence, pigweed; details: 0 to 100 scale (0 no effect, 100 complete control)
# Source text: as §1
# [17] = test system: velvetleaf (Abutilon theophrasti); test: Test A preemergence, velvetleaf; details: 0 to 100 scale (0 no effect, 100 complete control)
# Source text: as §1
# [18] = test system: morningglory (Ipomoea spp.); test: Test A postemergence, morningglory; details: 0 to 100 scale (0 no effect, 100 complete control)
# Source text: as §1
# [19] = test system: umbrella sedge (Cyperus difformis); test: Test B flooded paddy test, umbrella sedge; details: Flood, scale 0 to 100
# Source text: as §2
structure (smiles),measurement,setting,value
CC1(C)CC([S+]([O-])Cc2c(C(F)(F)C(F)(F)F)nc3n(c2=O)CCS3)=NO1 (stereo not drawn) [Compound 41],"Plant response rating, Crabgrass, Large",[1]; 125 g ai/ha,0
same,"Plant response rating, Crabgrass, Large",[1]; 500 g ai/ha,80
same,"Plant response rating, Wheat",[2]; 125 g ai/ha,0
same,"Plant response rating, Wheat",[2]; 500 g ai/ha,0
same,"Plant response rating, Barnyardgrass",[3]; 125 g ai/ha,0
same,"Plant response rating, Barnyardgrass",[3]; 500 g ai/ha,60
same,"Plant response rating, Wheat",[4]; 125 g ai/ha,0
same,"Plant response rating, Wheat",[4]; 500 g ai/ha,40
same,"Plant response rating, Foxtail, Giant",[5]; 125 g ai/ha,0
same,"Plant response rating, Foxtail, Giant",[5]; 500 g ai/ha,80
same,"Plant response rating, Rice",rice (Oryza sativa); 31 g ai/ha,0
same,"Plant response rating, Rice",rice (Oryza sativa); 62 g ai/ha,0
same,"Plant response rating, Rice",rice (Oryza sativa); 125 g ai/ha,0
same,"Plant response rating, Rice",rice (Oryza sativa); 250 g ai/ha,0
same,"Plant response rating, Crabgrass, Large",[6]; 125 g ai/ha,0
same,"Plant response rating, Crabgrass, Large",[6]; 500 g ai/ha,50
same,"Plant response rating, Barnyardgrass",[7]; 125 g ai/ha,30
same,"Plant response rating, Barnyardgrass",[7]; 500 g ai/ha,70
same,"Plant response rating, Ducksalad",[8]; 31 g ai/ha,0
same,"Plant response rating, Ducksalad",[8]; 62 g ai/ha,0
same,"Plant response rating, Ducksalad",[8]; 125 g ai/ha,0
same,"Plant response rating, Ducksalad",[8]; 250 g ai/ha,0
same,"Plant response rating, Velvetleaf",[9]; 125 g ai/ha,0
same,"Plant response rating, Velvetleaf",[9]; 500 g ai/ha,0
same,"Plant response rating, Corn",corn (Zea mays) [10]; 125 g ai/ha,0
same,"Plant response rating, Corn",corn (Zea mays) [10]; 500 g ai/ha,0
same,"Plant response rating, Morningglory",[11]; 500 g ai/ha,0
same,"Plant response rating, Corn",corn (Zea mays) [12]; 125 g ai/ha,0
same,"Plant response rating, Corn",corn (Zea mays) [12]; 500 g ai/ha,40
same,"Plant response rating, Pigweed",[13]; 125 g ai/ha,0
same,"Plant response rating, Pigweed",[13]; 500 g ai/ha,0
same,"Plant response rating, Foxtail, Giant",[14]; 125 g ai/ha,10
same,"Plant response rating, Foxtail, Giant",[14]; 500 g ai/ha,60
same,"Plant response rating, Barnyardgrass","[15]; 31 g ai/ha, scale 0 to 100",0
same,"Plant response rating, Barnyardgrass","[15]; 62 g ai/ha, scale 0 to 100",0
same,"Plant response rating, Barnyardgrass","[15]; 125 g ai/ha, scale 0 to 100",0
same,"Plant response rating, Barnyardgrass","[15]; 250 g ai/ha, scale 0 to 100 (0 no effect, 100 complete control)",0
same,"Plant response rating, Pigweed",[16]; 125 g ai/ha,0
same,"Plant response rating, Pigweed",[16]; 500 g ai/ha,0
same,"Plant response rating, Velvetleaf",[17]; 125 g ai/ha,0
same,"Plant response rating, Velvetleaf",[17]; 500 g ai/ha,0
same,"Plant response rating, Morningglory",[18]; 125 g ai/ha,0
same,"Plant response rating, Morningglory",[18]; 500 g ai/ha,10
same,"Plant response rating, Sedge, Umbrella",[19]; 31 g ai/ha,0
same,"Plant response rating, Sedge, Umbrella",[19]; 62 g ai/ha,0
same,"Plant response rating, Sedge, Umbrella",[19]; 125 g ai/ha,0
same,"Plant response rating, Sedge, Umbrella",[19]; 250 g ai/ha,0
"CC1(C)CC(SCc2c(C(F)(F)F)nc3n(c2=O)CCC3)=NO1 [Compound 9, 3-[[(4,5-dihydro-5,5-dimethyl-3-isoxazolyl)thio]methyl]-7,8-dihydro-2-(trifluoromethyl)pyrrolo[1,2-α]pyrimidin-4(6H)-one]","Plant response rating, Crabgrass, Large",[1]; 1000 g ai/ha,0
same,"Plant response rating, Wheat",[2]; 1000 g ai/ha,0
same,"Plant response rating, Barnyardgrass",[3]; 1000 g ai/ha,0
same,"Plant response rating, Wheat",[4]; 1000 g ai/ha,0
same,"Plant response rating, Foxtail, Giant",[5]; 1000 g ai/ha,0
same,"Plant response rating, Crabgrass, Large",[6]; 1000 g ai/ha,0
same,"Plant response rating, Barnyardgrass",[7]; 1000 g ai/ha,0
same,"Plant response rating, Velvetleaf",[9]; 1000 g ai/ha,10
same,"Plant response rating, Corn",corn (Zea mays) [10]; 1000 g ai/ha,0
same,"Plant response rating, Morningglory",[11]; 1000 g ai/ha,0
same,"Plant response rating, Corn",corn (Zea mays) [12]; 1000 g ai/ha,0
same,"Plant response rating, Pigweed",[13]; 1000 g ai/ha,10
same,"Plant response rating, Foxtail, Giant",[14]; 1000 g ai/ha,0
same,"Plant response rating, Pigweed",[16]; 1000 g ai/ha,0
same,"Plant response rating, Velvetleaf",[17]; 1000 g ai/ha,0
same,"Plant response rating, Morningglory",[18]; 1000 g ai/ha,30
